From patent publication US11028084B2, “Selective inhibitors of gentotoxic steress-induced IKK/NF-κB pathways” (Max-Delbrück-Centrum für Molekulare Medizin in der …, priority 2016, dated 2021)
Values belong to the molecule of their own block, whether it stands above or below them.

Tests used:
[1] = tested on: p65 S536 phosphorylation; experiment: p65 S536 phosphorylation after γ-IR or etoposide, SDS-PAGE/WB, U2OS cells; format: cell-based, human
Experimental: FIG. 3: (A) U2OS cells were pre-treated with increasing concentrations of MW01 in duplicates in a 384 well plate. Then, cells were treated with etoposide, fixed and subjected to IF of p65. Spatial measurement of p65 cytosolic and nuclear localisation was used for calculation of p65 translocation rates. (B) U2OS cells were pre-treated with DMSO, MW01 and irradiated with γ-IR. After 90 min cells were lysed and subjected to SDS-PAGE/WB and EMSA. (C) Cells were pre-treated with different concentrations of MW01 as indicated, treated with γ-IR (C) or etoposide (D) and subjected to WB or EMSA, respectively. LDH in (C) represents the loading control.
FIG. 14: (A) U2OS cells were pre-treated with different concentrations of olaparib prior to co-treatment with etoposide. Whole cell lysis was performed after 90 min and cleared lysates were used for WB with indicated antibodies. (B) U2OS cells were pre-treated with DMSO, olaparib or the ATM inhibitor Ku55933 and co-treated with etoposide. Cells were harvested after 45 min and subjected to SDS-PAGE/WB. Membranes were stained with the indicated antibodies. The experiment of (B) was performed simultaneously to the experiments of (A) and (E) to control functionality of olaparib in inhibiting PAR chain formation. (C) Densitometrical analyses of (A) and two further independent experiments done as shown in (A). (D) U2OS cells were pre-treated with the substances as indicated prior to irradiation. After 90 min mRNA was isolated, transcribed into cDNA and was used for expression analyses of the indicated genes using quantitative real-time PCR (qRT-PCR). (E) HepG2 cells were pre-treated with the PARP inhibitors olaparib, 3-AB and EB-47 prior to γ-irradiation. […]
After transfer of proteins on PVDF membranes unspecific binding of antibodies was blocked by incubation of membranes in 5% skim milk powder in TBST buffer (or 3% BSA in TBST for phosphorylation-specific antibodies) for 1 h at RT. […] After three times of washing with TBST and once with PBS for 5 min, chemiluminescent photon emission was detected using a CCD camera system (Fusion Solo). […]

[2] = tested on: NF-κB target genes NFKBIA, TNFAIP3, CXCL8; experiment: qRT-PCR of NF-κB target genes after irradiation, U2OS cells; format: cell-based, human; conditions: 90 min after irradiation
Experimental: (§1) FIG. 14: (A) U2OS cells were pre-treated with different concentrations of olaparib prior to co-treatment with etoposide. Whole cell lysis was performed after 90 min and cleared lysates were used for WB with indicated antibodies. (B) U2OS cells were pre-treated with DMSO, olaparib or the ATM inhibitor Ku55933 and co-treated with etoposide. Cells were harvested after 45 min and subjected to SDS-PAGE/WB. Membranes were stained with the indicated antibodies. The experiment of (B) was performed simultaneously to the experiments of (A) and (E) to control functionality of olaparib in inhibiting PAR chain formation. (C) Densitometrical analyses of (A) and two further independent experiments done as shown in (A). (D) U2OS cells were pre-treated with the substances as indicated prior to irradiation. After 90 min mRNA was isolated, transcribed into cDNA and was used for expression analyses of the indicated genes using quantitative real-time PCR (qRT-PCR). (E) HepG2 cells were pre-treated with the PARP inhibitors olaparib, 3-AB and EB-47 prior to γ-irradiation. Cells were harvested after 15 and 90 min and subjected to SDS-PAGE/WB. Membranes were stained with the indicated antibodies. Error bars equal SEM.
To quantitate specific mRNA (messenger RNA) species in samples RNA was isolated, RNA concentration was measured and mRNA was transcribed into cDNA. The amount of mRNA transcripts of certain genes within a sample was quantified by employing gene specific primers and using a C-1000 Thermal cycler (Biorad). The expression of genes of interest was normalised against two or three reference genes (HRPT1, RPL_13a and B2M) using the CFX manager software. The fold induction of mRNA was calculated over untreated sample levels by the ΔΔ-Ct method.

[3] = tested on: genotoxic stress-activated NF-κB signaling; experiment: TAK1 and p65 S536 phosphorylation after γ-irradiation, WB, HepG2 cells; format: cell-based, human; conditions: HepG2, 90 min after irradiation, PARP inhibitors
Experimental: FIG. 6: (A) U2OS cells were pre-treated with DMSO or MW01 and irradiated. Stimulation of cell with IL-1β served as a positive control for IκBα and p65 phosphorylation. Cells were lysed at indicated time points and used for WB analyses. (B,C) Similar experimental setup as in (A). (D) Experiment as in (A-C), but with other time points analysed and performed with HepG2 cells. PARP1 and LDH serve as loading controls.
(§2) FIG. 9: HepG2 cells were pre-incubated with DMSO, MW01 (5 μM) or the ATM inhibitor Ku55933 (10 μM) and irradiated. After 60 min cells were harvested and processed. Immunochemical staining of Western blotting membranes was done using indicated antibodies.
as §1

[4] = tested on: genotoxic stress-induced phosphorylation of p65 at S536; experiment: Structure-activity-relationship: p-p65 S536/p65 densitometry after etoposide, U2OS cells; format: cell-based, human; conditions: 10 μM, 2 h prior to etoposide, normalised to DMSO/etoposide
Experimental: FIG. 13: (A) U2OS cells were pre-treated with DMSO, MW01 or its derivatives MW01A1-MW01C5 at concentrations of 10 μM for 2 h prior to etoposide treatment. After incubation with etoposide cells were harvested, lysed and subjected to SDS-PAGE/WB. Phospho-[…] p65 signal intensities as well as p65 signal intensities were detected using a CCD camera and band intensities were used for densitometrical analyses. DMSO and etoposide treated control was set to 1. Four independent experiments were performed and statistical outliers were identified and eliminated using Grubb's test. […] (B) NFkB/293/GFP-luc cells were pre-treated with DMSO, MW01 or its derivatives MW01D01-MW01D18 at concentrations of 10 μM for 1.5 h prior to etoposide treatment. After incubation for 4.5 hours NF-κB-dependent luciferase expression was measured by detection of chemoluminescence. DMSO and etoposide treated control was set to 1. Twelve independent experiments were performed.
Different derivatives of MW01 were obtained (FIG. 12 A) and tested for their ability to inhibit genotoxic stress-induced phosphorylation of p65 at S536. Densitometry of western blot bands was used to quantify signal intensities of the p65 S536 phosphorylation and total p65 amount. The signal intensities of the p65 S536 phosphorylation were normalised to the signal intensities of total p65 and the quotients were normalised to DMSO/etoposide and compared with MW01/etoposide co-treated samples (FIG. 13). […] Compared to MW01, these compounds are derivatives in which the hydroxyl group was exchanged with a small substitute either fluoride, chloride or a methyl group, respectively. Furthermore, MW01C3 and MW01C4 differed in the substitution of the aromatic ring system V (FIG. 12 B) regarding the two methoxy groups that are missing.

[5] = target: T1, PARP1 (Mus musculus, UniProt P11103); conditions: MEF, after etoposide administration (Stilmann et al.; 2009); cited from earlier work
T1 construct: MEF cells were pre-treated with the indicated substances, irradiated and cell lysates were used for poly(ADP)-ribose probing; endogenous in cells; host or cells: MEF (mouse embryonic fibroblasts)
T1 sequence (P11103 whole entry): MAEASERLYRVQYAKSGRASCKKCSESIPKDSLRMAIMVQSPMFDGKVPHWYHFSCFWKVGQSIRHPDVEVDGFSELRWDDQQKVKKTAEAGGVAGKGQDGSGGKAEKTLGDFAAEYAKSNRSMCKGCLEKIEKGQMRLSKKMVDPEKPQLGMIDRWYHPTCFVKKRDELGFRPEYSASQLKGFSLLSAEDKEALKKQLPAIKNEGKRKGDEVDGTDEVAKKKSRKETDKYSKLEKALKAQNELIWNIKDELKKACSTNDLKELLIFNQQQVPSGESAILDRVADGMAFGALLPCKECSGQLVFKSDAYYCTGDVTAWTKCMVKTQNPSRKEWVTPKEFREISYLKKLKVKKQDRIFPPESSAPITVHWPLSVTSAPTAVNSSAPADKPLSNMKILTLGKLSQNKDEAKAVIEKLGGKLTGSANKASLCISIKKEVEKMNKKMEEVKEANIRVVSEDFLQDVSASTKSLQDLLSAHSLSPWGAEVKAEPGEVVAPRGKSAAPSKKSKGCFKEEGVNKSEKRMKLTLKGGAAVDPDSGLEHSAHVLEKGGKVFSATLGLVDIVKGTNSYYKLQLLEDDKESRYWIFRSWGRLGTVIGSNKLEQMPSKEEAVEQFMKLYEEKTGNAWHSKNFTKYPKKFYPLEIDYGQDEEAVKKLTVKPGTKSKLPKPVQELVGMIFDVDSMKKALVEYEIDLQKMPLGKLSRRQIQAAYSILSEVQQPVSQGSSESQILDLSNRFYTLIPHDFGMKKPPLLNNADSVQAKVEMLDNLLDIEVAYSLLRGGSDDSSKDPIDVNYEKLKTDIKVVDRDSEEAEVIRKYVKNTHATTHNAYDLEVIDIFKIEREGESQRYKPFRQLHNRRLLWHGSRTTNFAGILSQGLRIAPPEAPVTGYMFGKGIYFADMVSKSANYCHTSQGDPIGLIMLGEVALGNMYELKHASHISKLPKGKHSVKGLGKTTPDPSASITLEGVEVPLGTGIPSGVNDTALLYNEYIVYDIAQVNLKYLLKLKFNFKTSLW

[6] = target: T1, PARP1; experiment: PARP1 enzymatic activity, PAR chain formation after γ-irradiation, MEF cells; format: cell-based
Description: FIG. 10: (A) MEF cells were pre-treated with the indicated substances, irradiated and cell lysates were used for poly(ADP)-ribose probing using a specific antibody. (B) Experiment performed as described for (A), but using U2OS cells.

[7] = target: T2, PARP1 (Homo sapiens, UniProt P09874); experiment: PAR chain formation after γ-irradiation, HepG2 cells; format: cell-based; set-up: endogenous in cells; conditions: HepG2, 15 min after irradiation
T2 sequence (P09874 whole entry): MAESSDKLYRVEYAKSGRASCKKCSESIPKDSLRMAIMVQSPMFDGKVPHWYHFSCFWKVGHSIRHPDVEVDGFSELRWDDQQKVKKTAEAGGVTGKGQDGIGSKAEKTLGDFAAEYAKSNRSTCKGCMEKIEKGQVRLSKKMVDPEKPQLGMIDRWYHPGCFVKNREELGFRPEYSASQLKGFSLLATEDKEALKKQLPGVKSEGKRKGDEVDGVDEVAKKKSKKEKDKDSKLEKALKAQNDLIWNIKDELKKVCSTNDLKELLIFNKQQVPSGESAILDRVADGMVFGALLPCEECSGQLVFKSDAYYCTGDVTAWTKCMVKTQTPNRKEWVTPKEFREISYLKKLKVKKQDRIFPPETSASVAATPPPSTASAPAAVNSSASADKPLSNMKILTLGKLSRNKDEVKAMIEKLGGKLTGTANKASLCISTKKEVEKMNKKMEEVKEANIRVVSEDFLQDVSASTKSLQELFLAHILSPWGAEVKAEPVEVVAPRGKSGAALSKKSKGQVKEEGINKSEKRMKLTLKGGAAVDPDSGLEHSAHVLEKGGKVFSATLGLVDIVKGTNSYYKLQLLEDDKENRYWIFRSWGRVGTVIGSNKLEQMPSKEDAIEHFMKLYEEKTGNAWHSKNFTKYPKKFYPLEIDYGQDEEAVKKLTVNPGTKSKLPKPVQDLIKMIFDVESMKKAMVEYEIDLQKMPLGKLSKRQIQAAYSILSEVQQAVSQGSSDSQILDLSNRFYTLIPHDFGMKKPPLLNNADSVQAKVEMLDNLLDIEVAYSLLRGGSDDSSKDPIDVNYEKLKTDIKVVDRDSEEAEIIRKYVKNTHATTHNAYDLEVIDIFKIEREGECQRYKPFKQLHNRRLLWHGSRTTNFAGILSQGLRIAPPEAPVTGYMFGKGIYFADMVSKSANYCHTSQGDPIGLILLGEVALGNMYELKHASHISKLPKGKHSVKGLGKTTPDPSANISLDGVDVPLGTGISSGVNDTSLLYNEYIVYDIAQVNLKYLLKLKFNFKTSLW
Experimental: as §1

[8] = target: T2, PARP1; conditions: HepG2, after γ-irradiation (Stilmann et al.; 2009); cited from earlier work
[9] = tested on: NF-κB DNA binding activity; conditions: HEK293; data not shown, personal communication; cited from earlier work
[10] = target: T3, ATM (Homo sapiens, UniProt Q13315); experiment: Enzymatic activity of ATM in γ-irradiated HepG2 cells, WB of ATM and substrate phosphorylation; format: cell-based; conditions: HepG2, γ-irradiation, 60 min; MW01 5 μM, Ku55933 10 μM
T3 construct: endogenous in cells; host or cells: HepG2
T3 sequence (Q13315 whole entry): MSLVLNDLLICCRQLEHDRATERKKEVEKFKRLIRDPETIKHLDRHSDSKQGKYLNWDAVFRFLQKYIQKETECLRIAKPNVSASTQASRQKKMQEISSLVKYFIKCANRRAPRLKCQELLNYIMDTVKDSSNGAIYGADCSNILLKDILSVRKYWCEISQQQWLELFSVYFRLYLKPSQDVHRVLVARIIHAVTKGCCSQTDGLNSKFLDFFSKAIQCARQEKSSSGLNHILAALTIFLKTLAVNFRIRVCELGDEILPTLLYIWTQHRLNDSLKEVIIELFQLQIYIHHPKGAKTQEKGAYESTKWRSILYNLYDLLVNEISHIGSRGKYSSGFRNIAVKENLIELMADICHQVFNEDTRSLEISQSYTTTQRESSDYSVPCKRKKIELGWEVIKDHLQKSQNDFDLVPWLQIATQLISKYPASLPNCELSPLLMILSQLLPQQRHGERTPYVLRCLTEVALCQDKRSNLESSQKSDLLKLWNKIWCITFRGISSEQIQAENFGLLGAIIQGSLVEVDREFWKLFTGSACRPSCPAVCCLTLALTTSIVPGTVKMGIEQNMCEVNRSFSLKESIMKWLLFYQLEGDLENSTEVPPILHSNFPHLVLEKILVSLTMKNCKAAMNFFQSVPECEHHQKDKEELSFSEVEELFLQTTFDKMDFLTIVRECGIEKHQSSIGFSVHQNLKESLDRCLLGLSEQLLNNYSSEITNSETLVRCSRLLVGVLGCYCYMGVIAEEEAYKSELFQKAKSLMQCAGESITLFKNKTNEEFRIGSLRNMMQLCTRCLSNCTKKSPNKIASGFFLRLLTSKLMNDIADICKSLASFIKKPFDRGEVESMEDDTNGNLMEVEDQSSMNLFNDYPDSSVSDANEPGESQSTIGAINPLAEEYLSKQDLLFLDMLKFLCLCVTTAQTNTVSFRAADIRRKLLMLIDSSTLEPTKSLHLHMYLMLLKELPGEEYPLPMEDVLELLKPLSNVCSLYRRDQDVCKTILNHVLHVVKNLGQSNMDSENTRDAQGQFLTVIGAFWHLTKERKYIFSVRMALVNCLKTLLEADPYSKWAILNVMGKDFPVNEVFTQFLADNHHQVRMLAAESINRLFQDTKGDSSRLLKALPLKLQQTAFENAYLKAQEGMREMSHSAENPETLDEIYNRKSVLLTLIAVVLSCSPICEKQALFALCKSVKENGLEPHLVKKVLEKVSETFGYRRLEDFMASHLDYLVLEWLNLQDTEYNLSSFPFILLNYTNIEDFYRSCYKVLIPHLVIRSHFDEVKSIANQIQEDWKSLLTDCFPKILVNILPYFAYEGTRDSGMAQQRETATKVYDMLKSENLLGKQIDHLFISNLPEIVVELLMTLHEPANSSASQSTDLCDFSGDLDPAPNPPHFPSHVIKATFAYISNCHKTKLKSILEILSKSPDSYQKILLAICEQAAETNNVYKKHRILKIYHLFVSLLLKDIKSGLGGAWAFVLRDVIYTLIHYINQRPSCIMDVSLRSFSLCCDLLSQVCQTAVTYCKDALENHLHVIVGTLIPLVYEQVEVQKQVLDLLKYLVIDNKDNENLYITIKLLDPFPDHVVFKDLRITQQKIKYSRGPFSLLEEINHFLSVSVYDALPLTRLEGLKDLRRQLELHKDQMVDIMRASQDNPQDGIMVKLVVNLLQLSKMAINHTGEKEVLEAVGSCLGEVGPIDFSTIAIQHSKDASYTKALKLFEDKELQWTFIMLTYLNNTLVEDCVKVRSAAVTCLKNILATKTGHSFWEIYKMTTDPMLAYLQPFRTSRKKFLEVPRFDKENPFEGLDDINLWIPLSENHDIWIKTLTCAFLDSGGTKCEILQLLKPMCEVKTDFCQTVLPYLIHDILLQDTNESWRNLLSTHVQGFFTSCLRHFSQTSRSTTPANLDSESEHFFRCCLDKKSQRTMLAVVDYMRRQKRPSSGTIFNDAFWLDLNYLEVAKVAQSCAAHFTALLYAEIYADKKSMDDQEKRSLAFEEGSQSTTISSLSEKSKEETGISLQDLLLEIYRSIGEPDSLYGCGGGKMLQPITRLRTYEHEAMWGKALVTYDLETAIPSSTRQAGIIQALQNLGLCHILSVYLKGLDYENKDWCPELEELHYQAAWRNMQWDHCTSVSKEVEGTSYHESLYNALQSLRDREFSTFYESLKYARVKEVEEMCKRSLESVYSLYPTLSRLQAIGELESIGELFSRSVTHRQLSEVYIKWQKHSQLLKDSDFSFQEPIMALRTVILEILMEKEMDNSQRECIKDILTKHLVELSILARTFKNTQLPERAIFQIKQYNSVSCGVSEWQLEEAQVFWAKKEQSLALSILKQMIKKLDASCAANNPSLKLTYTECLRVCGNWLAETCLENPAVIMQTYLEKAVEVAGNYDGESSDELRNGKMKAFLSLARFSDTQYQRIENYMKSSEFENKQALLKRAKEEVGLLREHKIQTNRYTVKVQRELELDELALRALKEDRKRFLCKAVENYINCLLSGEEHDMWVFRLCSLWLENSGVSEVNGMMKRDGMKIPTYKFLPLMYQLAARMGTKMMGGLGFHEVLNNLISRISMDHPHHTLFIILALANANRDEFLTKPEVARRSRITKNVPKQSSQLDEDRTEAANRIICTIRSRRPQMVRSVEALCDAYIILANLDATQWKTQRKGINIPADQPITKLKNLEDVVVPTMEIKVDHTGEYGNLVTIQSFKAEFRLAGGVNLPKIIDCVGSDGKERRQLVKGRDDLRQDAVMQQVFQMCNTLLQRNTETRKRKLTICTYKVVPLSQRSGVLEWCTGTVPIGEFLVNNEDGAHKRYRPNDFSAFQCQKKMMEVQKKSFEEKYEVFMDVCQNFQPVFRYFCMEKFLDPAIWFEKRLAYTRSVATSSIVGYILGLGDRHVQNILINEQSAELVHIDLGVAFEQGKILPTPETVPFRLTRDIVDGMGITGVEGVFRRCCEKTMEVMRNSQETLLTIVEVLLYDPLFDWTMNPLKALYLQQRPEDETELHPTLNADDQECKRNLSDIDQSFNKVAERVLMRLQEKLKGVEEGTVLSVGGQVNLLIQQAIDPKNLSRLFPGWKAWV
Experimental: as §2

Structure (SMILES): O=C(c1cc(Cc2n[nH]c(=O)c3ccccc23)ccc1F)N1CCN(C(=O)C2CC2)CC1 [olaparib]
p65 S536 phosphorylation in comparison to DMSO/etoposide co-treated controls ([1]; 0.63 μM to 10.0 μM, 90 min after etoposide): No significant decrease
signal intensity ratio of S536 phosphorylated p65 and total p65 (densitometry, three experiments) ([1]; etoposide co-treatment): did not influence
NFKBIA, TNFAIP3 and CXCL8 mRNA induction upon irradiation [2]: did not change
phosphorylation of p65 at S536 [3]: decreased phosphorylation

Structure (SMILES): O=c1c2ccccc2c2nccc3c4cc(Cl)ccc4n1c32 [MW01C4, 12-chloro-8H-benzo[c]indolo[3,2,1-ij][1,5]naphthyridin-8-one]
p-p65/p65 ratio (inhibition of NF-κB activation following etoposide co-treatment) [4]: lowest p-p65/p65 ratios

PAR chain formation / PARP1 enzymatic activity [6]: inhibition of PAR chain formation
PAR chain formation [7]: abolished
Structure (SMILES): Nc1ncnc2c1ncn2[C@@H]1O[C@H](C(=O)N2CCN(CC(=O)Nc3cccc4c3CNC4=O)CC2)[C@@H](O)[C@H]1O [EB-47]
PAR chain formation and NF-κB binding activity [5]: abrogated PAR chain formation and NF-κB binding activity
phosphorylation of p65 at S536 [3]: detected

PAR chain formation / PARP1 enzymatic activity [6]: inhibition of PAR chain formation
PAR chain formation [7]: abolished
Structure (SMILES): NC(=O)c1cccc(N)c1 [Example 3-AB]
PAR chain formation and NF-κB DNA binding activity [8]: inhibited PAR chain formation and NF-κB DNA binding activity
PAR chain formation and NF-κB binding activity [5]: abrogated PAR chain formation and NF-κB binding activity
NF-κB DNA binding activity [9]: did not abolish
phosphorylation of p65 at S536 [3]: decreased phosphorylation

ATM auto-phosphorylation and phosphorylation of the ATM substrates p53 and KAP1 [10]: inhibited
phosphorylation state of p53bp1 [10]: inhibited
Structure (SMILES): O=c1cc(-c2cccc3c2Sc2ccccc2S3)oc(N2CCOCC2)c1 [KU55933, reference compound]
NFKBIA, TNFAIP3 and CXCL8 mRNA induction upon irradiation [2]: complete inhibition

Structure (SMILES): COc1ccc2c3ccnc4c5ccc(OC)c(OC)c5c(=O)n(c2c1)c34 [MW01C1, 6,7,11-trimethoxy-8H-benzo[c]indolo[3,2,1-ij][1,5]naphthyridin-8-one]
p-p65/p65 ratio (inhibition of NF-κB activation following etoposide co-treatment) [4]: highly potent derivative

Structure (SMILES): COc1ccc2c(c1OC)c(=O)n1c3ccc(F)cc3c3ccnc2c31 [MW01C2, 12-fluoro-6,7-dimethoxy-8H-benzo[c]indolo[3,2,1-ij][1,5]naphthyridin-8-one]
p-p65/p65 ratio (inhibition of NF-κB activation following etoposide co-treatment) [4]: lowest p-p65/p65 ratios

Structure (SMILES): Cc1ccc2c(c1)c1ccnc3c4ccccc4c(=O)n2c13 [MW01C3, 12-methyl-8H-benzo[c]indolo[3,2,1-ij][1,5]naphthyridin-8-one]
p-p65/p65 ratio (inhibition of NF-κB activation following etoposide co-treatment) [4]: lowest p-p65/p65 ratios
